The results in this text go back to ChEMBL document CHEMBL1148364, “Structure-based design, synthesis, and structure-activity relationship studies of novel non-nucleoside adenosine deaminase inhibitors” (J Med Chem, 2004).

As usually defined, the Ki is a measure of affinity in units of concentration, obtained from inhibition or displacement. The bioavailability is dose-corrected exposure relative to a reference, in per cent. A low value points to poor availability. By Cmax is commonly meant the highest concentration seen after dosing. One may read the AUC(0-t) as exposure summed from dosing to a finite time, without extrapolation to infinity. Low readings indicate low exposure, high ones high exposure.

The target of one series is T1, Adenosine deaminase (Homo sapiens, UniProt P00813).
T1 sequence (P00813 whole entry): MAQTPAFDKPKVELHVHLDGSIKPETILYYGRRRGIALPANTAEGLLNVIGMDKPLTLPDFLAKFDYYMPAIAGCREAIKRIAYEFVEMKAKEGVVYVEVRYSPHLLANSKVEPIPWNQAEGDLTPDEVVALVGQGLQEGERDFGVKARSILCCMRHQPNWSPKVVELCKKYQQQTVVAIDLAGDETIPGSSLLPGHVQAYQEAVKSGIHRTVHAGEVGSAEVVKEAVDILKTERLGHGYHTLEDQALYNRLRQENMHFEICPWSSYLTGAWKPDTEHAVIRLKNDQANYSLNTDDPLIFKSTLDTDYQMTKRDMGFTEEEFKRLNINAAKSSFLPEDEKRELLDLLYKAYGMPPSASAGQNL
Conditions: not given
With `Cn1cc(CC[C@H](CO)n2cnc(C(N)=O)c2)c2cc(OCCCc3ccc(Cl)cc3)ccc21`, the affinity, expressed as Ki, was 4.9 nM. This counts as single-digit nanomolar. `CCCCCC(=O)Nc1ccc2ccn(CC[C@H](CO)n3cnc(C(N)=O)c3)c2c1` registered a Ki of 24 nM.

In the case of `NC(=O)c1cn([C@@H](CO)CCn2ccc3ccc(OCCCCc4ccccc4)cc32)cn1`, affinity was put at a Ki of 12 nM. This Ki lies about 2-fold lower than the previous one.

On to `NC(=O)c1cn([C@@H](CO)CCn2ccc3cc(OCCCc4ccccc4)ccc32)cn1`, for which the Ki is 1900 nM. The same measure, in the same setting: next, `NC(=O)c1cn([C@@H](CO)CCn2ccc3ccc(OCCCc4ccc(Cl)cc4)cc32)cn1`: 13 nM. Consider `CCCCCCOc1ccc2ccn(CC[C@H](CO)n3cnc(C(N)=O)c3)c2c1`, for which the Ki was found to be 55 nM. This Ki is about 4.2-fold higher than that of the compound before. The same measure, in the same setting: next, `Cc1ccc(CCCC(=O)Nc2ccc3ccn(CC[C@H](CO)n4cnc(C(N)=O)c4)c3c2)cc1`: 34 nM; `CCCCCCOc1ccc2c(c1)c(CC[C@H](CO)n1cnc(C(N)=O)c1)cn2C`: 13 nM; `NC(=O)c1cn([C@@H](CO)CCn2ccc3ccc(NC(=O)CCc4cccnc4)cc32)cn1`: 17 nM.

Turning to `NC(=O)c1cn([C@@H](CO)CCn2ccc3ccc(OCCCc4ccccc4)cc32)cn1`, the Ki was 17 nM.

In the case of `Cc1ccc(CCC(=O)Nc2ccc3ccn(CC[C@H](CO)n4cnc(C(N)=O)c4)c3c2)cc1`, the Ki was determined as 38 nM. On the same count and under the same terms, next, `NC(=O)c1cn([C@@H](CO)CCn2ccc3ccc(NC(=O)CCCCCc4ccccc4)cc32)cn1`: 91 nM. Regarding `COc1ccc(CCC(=O)Nc2ccc3ccn(CC[C@H](CO)n4cnc(C(N)=O)c4)c3c2)cc1`, the affinity corresponds to a Ki of 57 nM. Compound `CCCCCCOc1ccc2c(ccn2CC[C@H](CO)n2cnc(C(N)=O)c2)c1` displayed a Ki of 6200 nM.

As for `CC(=O)Nc1ccc2ccn(CC[C@H](CO)n3cnc(C(N)=O)c3)c2c1`, affinity was put at a Ki of 1300 nM. The same measure, in the same setting: next, `CCCCOc1ccc2ccn(CC[C@H](CO)n3cnc(C(N)=O)c3)c2c1`: 240 nM.

Tested on in another series: not listed separately
Put plainly: Oral bioavailability in rats at 10 mg/kg. It counts as ADME, organism-based. The settings on record: rat, in vivo.
With `Cn1cc(CC[C@H](CO)n2cnc(C(N)=O)c2)c2cc(OCCCc3ccc(Cl)cc3)ccc21`, the bioavailability stood at 10%.

Tested on in another series: not listed separately
Put plainly: Cmax value in rats at 10 mg/kg. The class given is ADME, organism-based. More on the design: dose 10 mg/kg. The settings on record: rat, in vivo.
Regarding `Cn1cc(CC[C@H](CO)n2cnc(C(N)=O)c2)c2cc(OCCCc3ccc(Cl)cc3)ccc21`, the maximum concentration (Cmax) is 210 ng/mL.

Tested on in the next series: not listed separately
Put plainly: AUC 0-8 hr value in rats at 10 mg/kg. It counts as ADME, organism-based. The arrangement: time < 8 hr, dose 10 mg/kg. The settings on record: rat, plasma.
For the compound `Cn1cc(CC[C@H](CO)n2cnc(C(N)=O)c2)c2cc(OCCCc3ccc(Cl)cc3)ccc21`, the AUC(0-t) at 8 h is 260 ng·h/mL.
